We go through two molecules from patent US20110098358A1, “HUMAN BETA3 ADRENERGIC RECEPTOR LIGAND, AND FOOD OR PHARMACEUTICAL PRODUCT CONTAINING THE SAME” (RICOM CORPORATION, priority 2008, published 2011).

Counter-ions that a name gives are not always drawn.

Test [1] addresses T1, human recombinant adrenergic β3 receptor (Homo sapiens, UniProt P13945).
T1 construct: expressed in transfected cells; host or cells: HEK-293 cells
The test is described as follows: adrenergic β3 receptor binding activity ([125I]cyanopindolol). Conditions: HEK-293 cells, 0.5 nM [125I]cyanopindolol, Tris buffer pH 7.4, 25° C., 90 minutes. As to the method: The adrenergic β3 receptor binding activity can be measured according to, for example, the method described in Cell Biology: Feve et al, Proc. Natl. Acad. Sci. USA 91 (1994), Vol. 91, pp. 5677-5681, using HEK-293 cells which express a human recombinant adrenergic β3 receptor. That is, a solution of a sample in 1% DMSO, and 0.5 nM [^125I]cyanopindolol are added to Tris buffer (pH 7.4), and the HEK-293 cells are cultured therein at 25° C. for 90 minutes, followed by filtration and washing of the cells, and measurement of the radioactivity of the adrenergic β3 receptor binding ligand.
Each component containing the components shown in Table 1 below was dissolved in DMSO to 1 w/v %, and the resulting solution was added to an adipocyte differentiation medium (Primary Cell Co., Ltd., Lot No. 080411) to a final concentration of 10 μg/mL before use. The test of the adrenergic β3 receptor binding activity was carried out by the above-mentioned method.

The test system of test [2] is subcutaneous white preadipocytes (SAC). The test is described as follows: observation of cell morphology (SAC), fat accumulation and reaction to NE. It is filed as cell-based, rat. The settings on record: NE 1×10^−6 M, 6 hours on last day. As for the experimental part: (§1) Using 4 types of rat primary preadipocytes (visceral fat, […], subcutaneous white fat and brown fat), the fat accumulation-suppressing effect and fat-releasing effect by the composition of the present invention were preliminarily studied in vitro. […] The test of the adrenergic β3 receptor binding activity was carried out by the above-mentioned method. The Preadipocyte Culture kit H-3 with 3 types of cells (primary, rat, Primary Cell Co., Ltd.: visceral preadipocytes (hereinafter referred to as VAC), Lot No. FIHA-FV; subcutaneous white preadipocytes (hereinafter referred to as […] preadipocytes (hereinafter referred to as EAC), FIHA-FE) and the Brown Adipocyte Culture kit F-8 (primary, rat, Primary Cell Co., Ltd.: Lot No. HDOA-1) were used. The 3 types of preadipocytes (visceral fat, […] subcutaneous white fat) were seeded into 12 wells in a 24-well plate at a cell number of 1.5×10^6 (1.2×10^5 cells/mL/well), followed by preculture for 4 days in the adipocyte differentiation medium. Thereafter (on day 4 after seeding), the negative control substance and the test substance were prepared to a predetermined concentration in a visceral fat differentiation medium, and the prepared medium was added to the cells. The medium was replaced on days 0, 2 and 4 after the addition of the test substance (days 4, 6 and 8 after seeding), while adding freshly prepared medium after the collection. […]

In the next test the test system is brown adipocytes (BAT). As to the kind of experiment: observation of cell morphology (BAT), fat accumulation and reaction to NE. The settings on record: 1 hour on last day. It is filed as cell-based, rat. As to the method: Using 4 types of rat primary preadipocytes (visceral fat, […], subcutaneous white fat and brown fat), the fat accumulation-suppressing effect and fat-releasing effect by the composition of the present invention were preliminarily studied in vitro. […] The test of the adrenergic β3 receptor binding activity was carried out by the above-mentioned method. The Preadipocyte Culture kit H-3 with 3 types of cells (primary, rat, Primary Cell Co., Ltd.: visceral preadipocytes (hereinafter referred to as VAC), Lot No. FIHA-FV; subcutaneous white preadipocytes (hereinafter referred to as […] preadipocytes (hereinafter referred to as EAC), FIHA-FE) and the Brown Adipocyte Culture kit F-8 (primary, rat, Primary Cell Co., Ltd.: Lot No. HDOA-1) were used. Cells seeded on a 24-well plate were cultured in a growth medium for 3 days, and the cells were confirmed to have become confluent. After replacing the medium with a differentiation induction medium, the culture was continued for 2 days, and the negative control substance and the test substance were prepared to a predetermined concentration with a maintenance medium, followed by addition of the prepared medium and 4 days of culture. The treatment with NE was carried out in the same manner as in VAC, using the maintenance medium. […]

For test [3], the system named is visceral preadipocytes (VAC). The test is described as follows: observation of cell morphology (VAC), fat accumulation and reaction to NE. The format is cell-based, rat. Conditions: NE 1×10^−6 M, 6 hours on last day. As for the experimental part: as §1
For test [4], the system named is periepididymal preadipocytes (EAC). As to the kind of experiment: observation of cell morphology (EAC), fat accumulation and reaction to NE. It is filed as cell-based, rat. The settings on record: NE 1×10^−6 M, 6 hours on last day. As to the method:
as §1

T1 sequence (P13945 whole entry): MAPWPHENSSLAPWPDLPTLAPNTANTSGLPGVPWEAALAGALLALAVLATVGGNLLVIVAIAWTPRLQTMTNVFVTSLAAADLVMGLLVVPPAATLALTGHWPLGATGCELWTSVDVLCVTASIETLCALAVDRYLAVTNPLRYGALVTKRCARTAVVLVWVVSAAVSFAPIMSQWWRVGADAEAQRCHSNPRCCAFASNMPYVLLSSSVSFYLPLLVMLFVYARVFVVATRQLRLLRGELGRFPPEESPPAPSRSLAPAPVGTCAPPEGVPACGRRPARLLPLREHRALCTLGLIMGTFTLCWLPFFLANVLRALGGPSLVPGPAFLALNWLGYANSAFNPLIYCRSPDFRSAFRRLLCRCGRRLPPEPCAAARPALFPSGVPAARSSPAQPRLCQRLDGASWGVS

Turning to `CC/C=C\C/C=C\C/C=C\CCCCCCCC(=O)O` [compound 7, C18:3α], the “Binding activity (%)” value in test [1] is reported as 22%.

On to `NC[C@H](O)c1ccc(O)c(O)c1` [NE, (−)-Norepinephrine(+)-bitartrate salt hydrate], for which the “reaction by the addition of NE (morphology)” value in test [2] and in test [4] was “reaction by the addition of NE was obtained” each time. The “reaction by 1 hour of treatment with NE (morphology)” value with brown adipocytes (BAT) is reported as “sufficiently confirmed”. In addition, the “reaction by treatment with NE (morphology)” value in test [3] is on record as “reaction by 6 hours of the treatment with NE was obtained”.
